Publication PMC11750451, “Diarylamidine activation of a brachiopod DEG/ENaC/ASIC channel” (The Journal of Biological Chemistry, 2024)
“Also recorded” adds a separate entry of the source. Where two headings read alike, the source gives them in different places. Blank lines part the entries; values can stand above or below the compound they belong to.

Assays:
[1] = biological target: DiaaNaC (diarylamidine-activated Na+ channel) (Novocrania anomala, UniProt A0AAU8BSW0); assay: Two-electrode voltage clamp of Xenopus laevis oocytes expressing WT DiaaNaC; format: cell-based; conditions: for activation of DiaaNaC (agonist activity): compound at 1 mM; for inward currents in absence of extracellular Na+: 1 mM compound, 140 KCl instead of NaCl; for reversal potential (Erev) of pentamidine-gated current: n = 5
DiaaNaC (diarylamidine-activated Na+ channel), sequence (A0AAU8BSW0 entry or part of it): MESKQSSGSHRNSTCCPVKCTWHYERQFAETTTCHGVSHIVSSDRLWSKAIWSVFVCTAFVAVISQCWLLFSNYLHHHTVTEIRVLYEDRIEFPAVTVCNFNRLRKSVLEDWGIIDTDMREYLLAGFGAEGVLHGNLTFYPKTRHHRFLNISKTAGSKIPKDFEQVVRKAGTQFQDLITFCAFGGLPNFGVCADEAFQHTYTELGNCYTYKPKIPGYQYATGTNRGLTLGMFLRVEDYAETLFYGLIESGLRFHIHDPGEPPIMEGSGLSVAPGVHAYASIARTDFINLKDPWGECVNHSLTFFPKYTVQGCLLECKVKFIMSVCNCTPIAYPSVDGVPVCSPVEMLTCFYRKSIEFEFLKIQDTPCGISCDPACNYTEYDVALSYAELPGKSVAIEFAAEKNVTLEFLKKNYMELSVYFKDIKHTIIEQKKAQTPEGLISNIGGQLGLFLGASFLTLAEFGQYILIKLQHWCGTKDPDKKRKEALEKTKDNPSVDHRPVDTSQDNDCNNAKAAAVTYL
Method: (§1) Before electrophysiological recordings or surface expression determination, the oocytes were cultured for 3 days at 18 °C in 50% Leibowitz medium (L1518, Merck), supplemented with 0.25 mg/ml gentamicin, 1 mM L-glutamine, and 15 mM Hepes (pH 7.6). For surface expression detection, mouse anti-Myc tag monoclonal IgG1 antibody (MA121316, Fisher Scientific) was used to detect the myc tag attached to the 3′-end of all the constructs used in this work, and the protocol previously used in our lab was followed ([47]) using a Zeiss Axio Scope A1 microscope. The intensity of the expression signal was quantified by tracing a perpendicular line across the oocyte membrane and measuring the gray values with ImageJ software ([48]).
Whole cell currents were recorded from oocytes by two-electrode voltage clamp using an OC-725D amplifier (Warner Instruments) controlled via an Axon Digitata 1550B interface and pClamp v11 (Molecular Devices), acquired at 1 kHz, and filtered at 200 Hz. Currents were analyzed in pClamp v10.7 software (Molecular Devices) and additionally filtered at 10 Hz for display in figures. Oocytes were clamped at −60 mV, unless otherwise indicated, and continuously perfused with a bath solution containing (in mM): 140 NaCl, 1.8 BaCl2, and 10 Hepes. The pH was adjusted to 7.5 with NaOH, HCl, or KOH, as appropriate. For current–voltage relationships where K^+ replaced Na^+, KCl replaced NaCl in the above bath solution. In most experiments, activating solution was applied to oocytes in between resting periods of at least 30 to 60 s. After retrieving current amplitude from pClamp, all data were analyzed in Prism v9 (GraphPad Software). Currents were normalized by dividing by the maximum current at that oocyte, giving “I/Imax” in most concentration–response graphs. For graphs in figures and for calculating half-maximal effective (or inhibitory) concentration (EC50 or IC50) values, variable slope nonlinear regression was used in Prism v9, with the equation Y = Bottom + (Top-Bottom)/ […] 10^∧((LogEC50-X)∗HillSlope)), and maximum was constrained to one and minimum to zero. Curves in figures are fit to the mean data points. EC50 and IC50 values reported in text and used in statistical comparisons are means from curve fits to data on individual oocytes.

DiaaNaC G6′S = assay: Two-electrode voltage clamp, DiaaNaC G6′S mutant in oocytes; format: cell-based, Novocrania anomala
Description: (§2) The DiaaNaC full-length coding sequence was amplified by PCR from N. anomala cDNA and subcloned via SalI and BamHI sites into a pSP64 (polyA) vector (P1241, Promega) modified to contain the X. laevis globin 5′ and 3′ UTRs and a C-terminal Myc-tag linked to the final DiaaNaC residue via Gly-Ser linker (the BamHI site) (see ([20]) for full vector sequence). The cDNA sequence was deposited in NCBI GenBank accession number PP942623. Recombinant PCR with Phusion High-Fidelity DNA polymerase (F-549L, Thermo Fisher Scientific) was used to perform site-directed mutagenesis, as described previously ([45]). […] EcoRI (FD0274, Thermo Fisher Scientific) was used to linearize the cDNAs via a site shortly after the poly(A) sequence, and the mMESSAGE mMACHINE SP6 Transcription Kit (AM1340, Thermo Fisher Scientific) was used to synthesize cRNA.
as §1
(§3) Whole cell currents were recorded from oocytes by two-electrode voltage clamp using an OC-725D amplifier (Warner Instruments) controlled via an Axon Digitata 1550B interface and pClamp v11 (Molecular Devices), acquired at 1 kHz, and filtered at 200 Hz. Currents were analyzed in pClamp v10.7 software (Molecular Devices) and additionally filtered at 10 Hz for display in figures. […] After retrieving current amplitude from pClamp, all data were analyzed in Prism v9 (GraphPad Software). […]

DiaaNaC L70S = assay: Two-electrode voltage clamp, DiaaNaC L70S mutant in oocytes; format: cell-based, Novocrania anomala; conditions: 0 mV
Description: The DiaaNaC full-length coding sequence was amplified by PCR from N. anomala cDNA and subcloned via SalI and BamHI sites into a pSP64 (polyA) vector (P1241, Promega) modified to contain the X. laevis globin 5′ and 3′ UTRs and a C-terminal Myc-tag linked to the final DiaaNaC residue via Gly-Ser linker (the BamHI site) (see ([20]) for full vector sequence). The cDNA sequence was deposited in NCBI GenBank accession number PP942623. Recombinant PCR with Phusion High-Fidelity DNA polymerase (F-549L, Thermo Fisher Scientific) was used to perform site-directed mutagenesis, as described previously ([45]). […]
Before electrophysiological recordings or surface expression determination, the oocytes were cultured for 3 days at 18 °C in 50% Leibowitz medium (L1518, Merck), supplemented with 0.25 mg/ml gentamicin, 1 mM L-glutamine, and 15 mM Hepes (pH 7.6). […] The intensity of the expression signal was quantified by tracing a perpendicular line across the oocyte membrane and measuring the gray values with ImageJ software ([48]).
Whole cell currents were recorded from oocytes by two-electrode voltage clamp using an OC-725D amplifier (Warner Instruments) controlled via an Axon Digitata 1550B interface and pClamp v11 (Molecular Devices), acquired at 1 kHz, and filtered at 200 Hz. Currents were analyzed in pClamp v10.7 software (Molecular Devices) and additionally filtered at 10 Hz for display in figures. […]

DiaaNaC E82A = assay: Two-electrode voltage clamp, DiaaNaC E82A mutant in oocytes; format: cell-based, Novocrania anomala
Description: as §2, §1, §3

DiaaNaC E358A = assay: Two-electrode voltage clamp, DiaaNaC E358A mutant in oocytes; format: cell-based, Novocrania anomala
Description: as §2, §1, §3

- activation of DiaaNaC (agonist activity) ([1]; −60 mV): none of these compounds activated
Structure (SMILES): Cc1nc(N=C(N)N)nc2ccccc12 [GMQ, 2-(4-methylquinazolin-2-yl)guanidine]

Structure (SMILES): N=C(N)c1ccc(/N=N/Nc2ccc(C(=N)N)cc2)cc1 [diminazene]
- inward currents in absence of extracellular Na+ ([1]; −60 mV): tiny, if any
- concentration that activates DiaaNaC ([1]; WT): ≥ 300 µM
- concentration that blocks DiaaNaC ([1]; WT): ≥ 1 mM
- effect on constitutive current ([1]; diminazene 1 mM, absence of Ca2+): without inhibiting the constitutive current
- inward currents activated ([1]; diminazene 1 mM, absence of Ca2+, −60 mV, n = 7): 1.0 ± 0.2 μA
- EC50 ([1]; holding potential 0 mV, WT, read-out: diminazene EC50 for activation): 409 ± 71 µM
- EC50 ([1]; −60 mV, absence of Ca2+, WT, read-out: EC50 for activation of DiaaNaC): 287 µM
- inhibition at 1000 µM ([1]; −100 mV, 1 mM diminazene, read-out: block of the agonist-gated current): ~100%
- diminazene potency compared to WT (DiaaNaC G6′S; 0 mV): significantly reduced
- diminazene agonist potency compared to WT (DiaaNaC G6′S; −60 mV): decrease in agonist potency
- channel block by diminazene (DiaaNaC G6′S; −60 mV, even at 3 mM diminazene): block was not evident
- diminazene-gated currents (DiaaNaC L70S): abolished
- diminazene potency compared to WT (DiaaNaC E82A; 0 mV): significantly reduced
- diminazene agonist potency compared to WT (DiaaNaC E82A; −60 mV): decrease in agonist potency
- channel block by diminazene (DiaaNaC E82A; −60 mV, 1 and 3 mM diminazene): noticeable block develops
- diminazene potency compared to WT (DiaaNaC E358A; 0 mV): significantly reduced
- diminazene agonist potency compared to WT (DiaaNaC E358A; −60 mV): decrease in agonist potency
- diminazene concentration at which block occurs (DiaaNaC E358A; −60 mV): 3 mM

- inward currents in absence of extracellular Na+ ([1]; −60 mV): tiny, if any
Structure (SMILES): N=C(N)c1ccc(-c2cc3ccc(C(=N)N)cc3[nH]2)cc1 [DAPI, 4′,6-diamidino-2-phenylindole]

Structure (SMILES): C[C@H](CCC(=O)O)[C@H]1CC[C@H]2[C@@H]3[C@@H](O)C[C@@H]4C[C@H](O)CC[C@]4(C)[C@H]3CC[C@]12C [Ursodeoxycholic acid, ursodeoxycholic acid]
- current activated ([1]; UDCA 2 mM, −60 mV, n = 7): 73.1 ± 10 nA

Structure (SMILES): NCCCNCCCCNCCCN [spermine]
- activation of DiaaNaC (agonist activity) ([1]; −60 mV): neither activated; also recorded: none of these compounds activated

Structure (SMILES): N=C(N)c1ccc(OCCCCCOc2ccc(C(=N)N)cc2)cc1 [pentamidine]
- reversal potential (Erev) of pentamidine-gated current ([1]; 150 μM pentamidine, extracellular NaCl): 53.5 ± 5.0 mV
- reversal potential (Erev) of pentamidine-gated current ([1]; 450 μM pentamidine, extracellular NaCl): 57.6 ± 3.4 mV
- pentamidine EC50 in the presence of amiloride ([1]; 600 μM amiloride): not significantly altered
- EC50 ([1]; EC50 for activation of DiaaNaC, −60 mV, absence of Ca2+, WT): 592 ± 30.7 µM
- reversal potential (Erev) of pentamidine-gated current ([1]; K+ the only monovalent cation in extracellular solution, pentamidine 450 μM, estimated): −12.2 ± 4.6 mV
- EC50 ([1]; pentamidine EC50, +10 mV, n = 4): 959 ± 80.7 µM
- EC50 ([1]; pentamidine EC50, +80 mV, n = 4): 1030 ± 101 µM
- EC50 ([1]; pentamidine EC50, −100 mV): 471 ± 38.4 µM
- EC50 ([1]; pentamidine EC50 with Ca2+, 1.8 mM Ca2+, n = 6): 1000 ± 100 µM
- block of the agonist-gated current ([1]; −100 mV, 1 mM pentamidine): no such block

- activation of DiaaNaC (agonist activity) ([1]; −60 mV): neither activated
Structure (SMILES): NCCCCNCCCN [spermidine]

Structure (SMILES): NC(N)=NCCCCN=C(N)N [arcaine]
- activation of DiaaNaC (agonist activity) ([1]; −60 mV): neither activated; also recorded: none of these compounds activated
